The conditions of data set [1]: purity of 98% by mass, aqueous solution with a solid concentration of 50% by mass; cited from earlier work.
The nature of data set [2]: Preliminary evaluation of digestion and absorption after oral ingestion. Conditions: orally ingested into a human body. Type of data set: in vivo.

In the case of `OC[C@H]1O[C@@H]2OC[C@H]3O[C@H](O[C@@H]4[C@@H](O)[C@@H](OC[C@H]5O[C@H](O[C@H]([C@H]2O)[C@@H]1O)[C@H](O)[C@@H](O)[C@@H]5O)O[C@H](CO)[C@H]4O)[C@H](O)[C@@H](O)[C@@H]3O` [cyclic tetrasaccharide, cyclo{→6)-α-D-glucopyranosyl-(1→3)-α-D-glucopyranosyl-(1→6)-α-D-glucopyranosyl-(1→3)-α-D-glucopyranosyl-(1→}], in data set [1], the precipitation of crystals entry is “easily causes precipitation of crystals”. Besides, the “digestion and absorption after oral ingestion” value in data set [2] is reported as “reaches the large intestine without being digested or absorbed”.

Source of the values: US12644142B2, “Sugar composition containing cyclic tetrasaccharide, use thereof, and production method therefor” (NAGASE VIITA CO., LTD., priority 2019, dated 2026).
